Results: patent US20140296216A1, “PYRIMIDO[4,5-D]PYRIMIDINYL COMPOUNDS, PHARMACEUTICAL COMPOSITIONS AND USES THEREOF” (GUANGZHOU INSTITUTE OF BIOMEDICINE AND HEALTH, CHINESE …, priority 2011, published 2014)

Key:
[1] = test system: EGFR kinase; assay: In vitro kinase assays of FIGS. 1-22 (WT EGFR and EGFR T790M), inhibition at fixed concentration; format: biochemical; conditions: 1 μM; FIGS. 1-22 (WT EGFR, EGFR T790M)
Procedure: In vitro enzymatic activity assay: using Z′-LYTE™ technology (detect fluorescence, coupled-enzyme format, based on the differential sensitivity of phosphorylated and non-phosphorylated peptides to proteolytic cleavage), based on FRET, using Z′ LYTE™ FRET peptide substrate, detect the activity of compounds against enzymatic. (invitrogen, Z′-LYTE™ KINASE ASSAY KIT-TYR 2 PEPTIDE, PV3191) EGFR T790M kinase (invitrogen, PV4803) was diluted progressively, then FRET-peptide, ATP and different concentrations of compound are added to the solution. After one hour, site specific protease which can recognize and cleaves non-phosphorylated FRET-peptide. After another hour, using an excitation wavelength of 400 nm excites, then detect the […] at 445 nm and 520 nm.
In the enzymatic activity assay of 7-(substituted amino)-3,4-dihydropyrimido[4,5-d]pyrimidin-(1H)-ones against the EGFR kinase, due to the presence of the irreversible Michael addition reaction with the protein cysteine sites, some compounds show a relatively good inhibitive activity to both the two kinases. […] The R1 of 7-(substituted amino)-3,4-dihydropyrimido[4,5-d]pyrimidin-(1H)-ones plays a key role in the interaction between compounds and protein, especially when R1 is aryl, it can get the best activity. […]

[2] = target: EGFRWT (Homo sapiens, UniProt P00533); assay: In vitro enzymatic activity assay (Z'-LYTE), wild type EGFR; format: biochemical; conditions: Z'-LYTE FRET peptide assay; read-out: EGFRWT kinase activity (IC50)
How it was run: (§1)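 Z'-LYTE FRET coupled-enzyme format: kinase phosphorylates FRET peptide substrate, then after one hour a site-specific protease cleaves non-phosphorylated peptide. After another hour, excitation at 400 nm and emission read at 445 and 520 nm.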

[3] = target: EGFRL858R (Homo sapiens, UniProt P00533, L858R); assay: In vitro enzymatic activity assay (Z'-LYTE), EGFR L858R; format: biochemical; conditions: Z'-LYTE FRET peptide assay; read-out: EGFRL858R kinase activity (IC50)
How it was run: as §1

[4] = target: EGFRL858R + T790M (Homo sapiens, UniProt P00533, L858R/T790M); assay: In vitro enzymatic activity assay (Z'-LYTE), EGFR L858R + T790M; format: biochemical; conditions: Z'-LYTE FRET peptide assay; read-out: EGFRL858R + T790M kinase activity (IC50)
How it was run: as §1

[5] = target: T1, EGFR T790M kinase (Homo sapiens, UniProt P00533, T790M); assay: In vitro enzymatic activity assay (Z'-LYTE), EGFR T790M; format: biochemical; conditions: Z'-LYTE FRET peptide assay; read-out: EGFRT790M kinase activity (IC50)
T1 construct: purchased invitrogen PV4803
How it was run: as §1

[6] = test system: H1975 (lung cancer cells, EGFR L858R&T790M); assay: Cell proliferation by MTT, H1975; format: cell-based; conditions: Homo sapiens, NCI-H1975, read-out: H1975 50% inhibitory concentration (IC50), 72 h
[7] = test system: A431 (Human epidermal carcinoma, EGFR high expression); assay: Cell proliferation by MTT, A431; format: cell-based; conditions: A-431, read-out: A431 50% inhibitory concentration (IC50), 72 h
[8] = test system: HCC827 (lung cancer cells, EGFR E746-A750 deletion); assay: Cell proliferation by MTT, HCC827; format: cell-based; conditions: Homo sapiens, HCC827, read-out: HCC827 50% inhibitory concentration (IC50), 72 h
[9] = target: EGFRL861Q (Homo sapiens, UniProt P00533, L861Q); assay: In vitro enzymatic activity assay (Z'-LYTE), EGFR L861Q; format: biochemical; conditions: Z'-LYTE FRET peptide assay; read-out: EGFRL861Q kinase activity (IC50)
How it was run: as §1

[10] = test system: NCI-H820 (lung cancer cells); assay: Cell proliferation by MTT, NCI-H820; format: cell-based; conditions: NCI-H820, read-out: NCI-H820 50% inhibitory concentration (IC50), 72 h
[11] = test system: H1975 cell; assay: Effect on cell cycle by PI; format: cell-based; conditions: PI staining, 24, 48 h; FIGS. 27, 28
Procedure: Detecting the effect of the compounds on cell cycle by PI: 8×10^5 cells/well, NCI-H820, A431, HCC827, EGFR E746-A750 deletion, H1975 were plated in 6-well plates, and 24 h later, treated with the compounds at various concentrations and a control (1% DMSO) for 24, 48 h. Cells were trypsined, collected and then centrifuged for 10 minutes. The cells were re-suspended in PBS to get a suspension and then the suspension (500 g) centrifuged for 10 min; this step was repeated twice: firstly 300 uL pre-cooled PBS was added and mixed, then 700 uL pre-cooled (i.e. −20° C.) anhydrous ethanol was added and mixed, placed in −20° C. for 24 h. The mixture was 5000 rpm centrifuged for 2 min, washed by PBS twice, resuspended with 200 uL PBS (it needs to ensure the cell concentration as about […]), added RNase to achieve the final concentration of 50 ug/mL, and […] at 37° C. for 30 min. The mixture was added PI achieve the final concentration of 10 ug/mL, dyed in dark for 30 min, and then detected within 1 h.

[12] = test system: H1975 cell; assay: Effect on cell apoptosis by Annexin V; format: cell-based; conditions: PE-Annexin V, 24, 48 h; FIG. 29
Procedure: Detecting the effect of the compounds on cell apoptosis by Annexin V: 8×10^5 cells/well, NCI-H820, A431, HCC827, EGFR E746-A750 deletion, H1975 were plated in 6-well plates, and 24 h later, treated with the compounds at various concentrations and a control (1% DMSO) for 24, 48 h. Growth medium was collected and cells were trypsined and collected correspondingly to the medium. Suspension (500 g) was centrifuged for 10 minutes. The cells were re-suspended in PBS to get a suspension and then the suspension (500 g) centrifuged for 10 min; this step was repeated twice. The cells were re-suspended in binding buffer, 5×10^5-1×10^6 cells/mL. PE-Annexin V (556421, BD Pharmingen) […] respectively. The cells were incubated for 15 min at RT in the dark. The samples were detected with FACS Calibur flow cytometer (Becton Dickinson).

[13] = test system: EGFR phosphorylation in H1975 Cell; assay: Western Blot, cell signaling pathway in H1975 cell; format: cell-based; conditions: FIG. 30
Procedure: Conventional Western Blot (Immune blotting method) was used, wherein the method includes four steps: sample preparation, electrophoretic separation, film transfer of protein, and immuno hybridization and color display (protein detection). Sample preparation • 1. culturing cells or treating the cells with drugs; • 2. discarding mediums, washing the cells with 1×PBS twice to completely remove the mediums; • 3. adding 1×SDS sample buffer (6-well plate, 100 μl/w or 75 cm^2 plate, 500-1000 μl/bottle), scrapping the cells and transferring them to Ep tube; • 4. ultrasonic shearing DNA for 10-15 seconds to reduce the viscosity of the sample; • 5. boiling the sample for 5 minutes; • 6. centrifuging 12000 g sample for 5 minutes and taking the supernatant. […]

Sequence of EGFRWT (P00533 25-1210): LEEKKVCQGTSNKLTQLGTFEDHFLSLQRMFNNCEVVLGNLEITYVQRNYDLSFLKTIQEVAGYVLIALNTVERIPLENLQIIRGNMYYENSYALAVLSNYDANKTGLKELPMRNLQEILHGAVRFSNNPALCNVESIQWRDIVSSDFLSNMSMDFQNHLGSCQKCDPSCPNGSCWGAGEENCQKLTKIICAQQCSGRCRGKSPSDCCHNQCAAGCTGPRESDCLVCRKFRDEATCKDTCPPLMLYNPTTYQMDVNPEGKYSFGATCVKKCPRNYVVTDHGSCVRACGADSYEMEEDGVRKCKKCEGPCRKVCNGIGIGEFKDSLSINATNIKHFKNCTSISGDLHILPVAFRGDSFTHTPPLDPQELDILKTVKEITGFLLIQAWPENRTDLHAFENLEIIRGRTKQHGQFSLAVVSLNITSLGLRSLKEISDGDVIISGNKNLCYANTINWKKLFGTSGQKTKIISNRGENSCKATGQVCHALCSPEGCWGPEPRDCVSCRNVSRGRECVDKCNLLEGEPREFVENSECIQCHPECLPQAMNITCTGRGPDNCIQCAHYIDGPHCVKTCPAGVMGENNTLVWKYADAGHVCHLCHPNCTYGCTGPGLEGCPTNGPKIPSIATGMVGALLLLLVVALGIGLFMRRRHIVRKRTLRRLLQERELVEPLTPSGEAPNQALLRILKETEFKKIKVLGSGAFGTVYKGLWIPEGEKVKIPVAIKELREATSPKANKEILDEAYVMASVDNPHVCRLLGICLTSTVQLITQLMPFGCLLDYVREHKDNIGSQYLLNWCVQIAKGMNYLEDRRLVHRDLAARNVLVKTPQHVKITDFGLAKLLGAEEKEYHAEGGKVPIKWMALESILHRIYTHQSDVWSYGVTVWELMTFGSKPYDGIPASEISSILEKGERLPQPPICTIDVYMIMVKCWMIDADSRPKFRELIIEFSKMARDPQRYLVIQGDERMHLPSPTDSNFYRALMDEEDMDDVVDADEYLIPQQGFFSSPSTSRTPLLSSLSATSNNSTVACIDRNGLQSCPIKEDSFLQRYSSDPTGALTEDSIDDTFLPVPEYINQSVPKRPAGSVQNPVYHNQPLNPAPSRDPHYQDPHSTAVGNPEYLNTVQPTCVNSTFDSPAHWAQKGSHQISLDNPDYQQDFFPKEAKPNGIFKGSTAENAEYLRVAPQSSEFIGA
Sequence of EGFRL858R + T790M (P00533 25-1210 T790M/L858R): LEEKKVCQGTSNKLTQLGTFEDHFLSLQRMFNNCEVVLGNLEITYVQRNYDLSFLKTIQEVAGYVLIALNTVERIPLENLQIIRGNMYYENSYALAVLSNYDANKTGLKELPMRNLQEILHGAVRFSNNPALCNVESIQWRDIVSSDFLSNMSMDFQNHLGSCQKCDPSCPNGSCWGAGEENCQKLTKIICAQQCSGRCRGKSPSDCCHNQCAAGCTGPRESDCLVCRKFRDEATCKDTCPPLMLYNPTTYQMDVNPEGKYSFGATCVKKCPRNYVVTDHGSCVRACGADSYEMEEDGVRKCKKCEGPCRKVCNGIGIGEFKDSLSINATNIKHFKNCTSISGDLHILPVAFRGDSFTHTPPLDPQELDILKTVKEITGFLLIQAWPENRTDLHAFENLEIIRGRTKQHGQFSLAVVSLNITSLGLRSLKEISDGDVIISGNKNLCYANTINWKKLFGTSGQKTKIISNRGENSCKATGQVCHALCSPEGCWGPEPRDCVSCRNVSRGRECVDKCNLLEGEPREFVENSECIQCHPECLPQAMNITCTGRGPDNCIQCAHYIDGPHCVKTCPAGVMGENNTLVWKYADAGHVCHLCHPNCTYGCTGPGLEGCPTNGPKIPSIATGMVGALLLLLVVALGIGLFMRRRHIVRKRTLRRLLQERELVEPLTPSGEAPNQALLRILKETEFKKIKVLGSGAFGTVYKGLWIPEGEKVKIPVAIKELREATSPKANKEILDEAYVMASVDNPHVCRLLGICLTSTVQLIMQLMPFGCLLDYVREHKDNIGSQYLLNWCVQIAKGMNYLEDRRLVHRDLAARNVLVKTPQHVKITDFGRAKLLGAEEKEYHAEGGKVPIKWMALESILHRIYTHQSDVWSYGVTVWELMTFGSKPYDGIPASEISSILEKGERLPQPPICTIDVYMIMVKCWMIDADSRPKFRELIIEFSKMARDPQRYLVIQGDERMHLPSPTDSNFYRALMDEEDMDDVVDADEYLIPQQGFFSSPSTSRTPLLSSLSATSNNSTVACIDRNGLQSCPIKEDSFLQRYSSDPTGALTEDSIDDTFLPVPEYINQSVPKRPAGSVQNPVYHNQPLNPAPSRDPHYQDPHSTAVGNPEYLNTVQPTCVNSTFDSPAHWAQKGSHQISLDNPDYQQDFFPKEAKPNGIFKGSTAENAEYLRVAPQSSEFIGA
Sequence of EGFRL861Q (P00533 25-1210 L861Q): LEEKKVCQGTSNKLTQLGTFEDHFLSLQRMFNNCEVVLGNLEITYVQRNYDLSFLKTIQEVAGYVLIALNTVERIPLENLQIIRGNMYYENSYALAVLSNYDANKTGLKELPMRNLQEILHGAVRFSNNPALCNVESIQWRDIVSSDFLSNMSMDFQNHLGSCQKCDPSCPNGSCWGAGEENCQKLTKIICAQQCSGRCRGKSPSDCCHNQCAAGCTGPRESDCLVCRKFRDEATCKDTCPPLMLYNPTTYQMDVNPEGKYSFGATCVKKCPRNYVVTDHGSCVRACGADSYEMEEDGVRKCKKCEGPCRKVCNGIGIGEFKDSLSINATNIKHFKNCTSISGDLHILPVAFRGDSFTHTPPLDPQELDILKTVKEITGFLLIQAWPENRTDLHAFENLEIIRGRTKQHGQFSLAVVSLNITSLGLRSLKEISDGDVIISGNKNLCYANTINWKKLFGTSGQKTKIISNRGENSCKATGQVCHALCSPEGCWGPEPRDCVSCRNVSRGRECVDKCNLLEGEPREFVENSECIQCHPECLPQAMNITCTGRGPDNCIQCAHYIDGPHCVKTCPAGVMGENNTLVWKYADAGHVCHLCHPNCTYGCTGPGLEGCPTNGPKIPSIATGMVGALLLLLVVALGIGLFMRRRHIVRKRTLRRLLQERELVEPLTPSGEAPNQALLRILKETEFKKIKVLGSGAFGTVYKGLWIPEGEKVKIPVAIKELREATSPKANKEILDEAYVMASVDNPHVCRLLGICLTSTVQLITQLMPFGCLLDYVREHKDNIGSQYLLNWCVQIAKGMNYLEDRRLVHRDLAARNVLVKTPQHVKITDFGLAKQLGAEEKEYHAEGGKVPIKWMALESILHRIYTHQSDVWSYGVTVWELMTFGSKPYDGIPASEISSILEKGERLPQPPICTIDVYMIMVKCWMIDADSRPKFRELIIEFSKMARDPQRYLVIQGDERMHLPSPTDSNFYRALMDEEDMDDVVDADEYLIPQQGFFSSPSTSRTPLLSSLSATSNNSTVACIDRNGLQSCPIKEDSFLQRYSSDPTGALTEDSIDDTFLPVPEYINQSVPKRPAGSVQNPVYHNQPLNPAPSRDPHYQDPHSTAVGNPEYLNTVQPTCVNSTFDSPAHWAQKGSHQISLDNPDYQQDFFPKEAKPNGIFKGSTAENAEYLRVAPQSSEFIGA
Sequence of EGFRL858R (P00533 25-1210 L858R): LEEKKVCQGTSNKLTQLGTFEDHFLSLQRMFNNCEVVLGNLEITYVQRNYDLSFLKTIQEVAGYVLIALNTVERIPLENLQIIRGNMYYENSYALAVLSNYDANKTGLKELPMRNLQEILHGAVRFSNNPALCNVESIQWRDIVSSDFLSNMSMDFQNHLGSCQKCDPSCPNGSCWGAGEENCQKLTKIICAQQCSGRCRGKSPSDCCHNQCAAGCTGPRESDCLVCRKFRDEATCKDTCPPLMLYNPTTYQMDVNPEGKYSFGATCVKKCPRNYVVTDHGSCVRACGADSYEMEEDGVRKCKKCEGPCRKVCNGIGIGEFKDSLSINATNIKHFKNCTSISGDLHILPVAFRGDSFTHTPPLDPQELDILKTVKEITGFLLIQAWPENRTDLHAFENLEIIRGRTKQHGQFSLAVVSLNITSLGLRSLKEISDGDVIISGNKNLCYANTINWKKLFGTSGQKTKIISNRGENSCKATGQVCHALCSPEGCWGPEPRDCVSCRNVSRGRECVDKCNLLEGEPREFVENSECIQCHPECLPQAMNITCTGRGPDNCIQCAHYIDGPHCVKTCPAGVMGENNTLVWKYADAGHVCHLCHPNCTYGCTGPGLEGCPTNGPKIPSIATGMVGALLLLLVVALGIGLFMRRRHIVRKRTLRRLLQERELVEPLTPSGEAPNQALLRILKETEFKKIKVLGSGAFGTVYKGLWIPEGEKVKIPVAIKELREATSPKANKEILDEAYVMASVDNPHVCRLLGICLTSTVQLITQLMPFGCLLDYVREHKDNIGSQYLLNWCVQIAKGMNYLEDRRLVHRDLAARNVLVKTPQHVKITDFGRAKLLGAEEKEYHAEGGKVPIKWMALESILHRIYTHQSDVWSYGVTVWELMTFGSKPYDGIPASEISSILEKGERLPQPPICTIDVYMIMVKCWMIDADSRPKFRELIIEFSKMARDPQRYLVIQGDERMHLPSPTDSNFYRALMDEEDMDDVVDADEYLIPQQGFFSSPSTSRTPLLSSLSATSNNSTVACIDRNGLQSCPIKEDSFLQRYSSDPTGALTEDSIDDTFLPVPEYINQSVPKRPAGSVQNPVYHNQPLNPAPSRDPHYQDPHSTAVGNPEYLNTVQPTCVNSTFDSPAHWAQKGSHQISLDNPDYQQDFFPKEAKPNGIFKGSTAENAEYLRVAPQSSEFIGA

Row | inhibitive activity for inhibiting a kinase at a relatively high test concentration [1] | IC50 [2] | IC50 [3] | IC50 [4] | IC50 [5] | IC50 [6] | IC50 [7] | IC50 [8] | IC50 [9] | IC50 [10] | Structure (SMILES) | cell cycle arrest [11] | cell apoptosis [12] | EGFR phosphorylation arrest [13] | downstream pathway phosphorylation [13]
1 | poor | 100 to 1000 nM | 100 to 1000 nM | 1000 to 10000 nM | 1000 to 10000 nM | > 20000 nM | > 30000 nM | 4890 nM | 1000 to 10000 nM | – | COc1cc(N2CCN(C)CC2)ccc1Nc1ncc2c(n1)N(c1cccc(N)c1)C(=O)N(C)C2 [C-EGF33, 1-(3-aminophenyl)-7-(2-methoxy-4-(4-methylpiperazin-1-yl)phenylamino)-3-methyl-3,4-dihydropyrimido[4,5-d]pyrimidin-2(1H)-one] | – | – | – | –
2 | – | ≤ 10 nM | ≤ 10 nM | ≤ 10 nM | ≤ 10 nM | 85 nM | 2930 nM | 52 nM | ≤ 10 nM | > 100000 nM | C=CC(=O)Nc1cccc(N2C(=O)N(C)Cc3cnc(Nc4ccc(N5CCN(C)CC5)cc4OC)nc32)c1 [C-EGF06, N-(3-(7-(2-methoxy-4-(4-methylpiperazin-1-yl)phenylamino)-3-methyl-2-oxo-3,4-dihydropyrimido[4,5-d]pyrimidin-1(2H)-yl)phenyl)acrylamide] | significantly induce | significantly induce | significantly induce EGFR phosphorylation arrest | further block
3 | – | ≤ 10 nM | ≤ 10 nM | ≤ 10 nM | ≤ 10 nM | 115 nM | 3970 nM | 29 nM | ≤ 10 nM | > 100000 nM | C=CC(=O)Nc1cccc(N2C(=O)N(C)Cc3cnc(Nc4ccc(N5CCN(C)CC5)cc4)nc32)c1 [x001, N-(3-(3-methyl-7-(4-(4-methylpiperazin-1-yl)phenylamino)-2-oxo-3,4-dihydropyrimido[4,5-d]pyrimidin-1(2H)-yl)phenyl)acrylamide] | – | – | – | –
4 | – | ≤ 10 nM | 10 to 100 nM | 10 to 100 nM | 10 to 100 nM | 543 nM | 62500 nM | 108 nM | 10 to 100 nM | > 100000 nM | C=CC(=O)Nc1cccc(N2C(=O)N(C)Cc3cnc(Nc4ccc(N5CCN(C)CC5)cc4OC(C)C)nc32)c1 [Compound X006, N-(3-(7-(2-isopropoxy-4-(4-methylpiperazin-1-yl)phenylamino)-3-methyl-2-oxo-3,4-dihydropyrimido[4,5-d]pyrimidin-1(2H)-yl)phenyl)acrylamide] | – | – | – | –
